Measured values taken from BindingDB's records for doi:10.1021/acs.jmedchem.1c01681 (Second Military Medical University, 2021).

Assay: Inhibition of SARS-CoV-2 spike glycoprotein expressed in HEK293T cells transfected with pAAV-CAG-HnCovS-RFP assessed as inhibition of membrane fusion to Huh-7 cells expressing hACE2 measured after 4 hrs by cell-cell fusion based fluorescence assay

CC[C@H](C)[C@H](NC(=O)CNC(=O)[C@H](CO)NC(=O)[C@@H](NC(=O)[C@H](CC(=O)O)NC(C)=O)[C@@H](C)CC)C(=O)N[C@@H](CC(N)=O)C(=O)N[C@@H](C)C(=O)N[C@@H](CO)C(=O)N[C@H](C(=O)N[C@H](C(=O)N[C@@H](CC(N)=O)C(=O)N[C@H](C(=O)N[C@@H](CCC(N)=O)C(=O)N[C@@H](CCCCN)C(=O)N[C@@H](CCC(=O)O)C(=O)N[C@H](C(=O)N[C@@H](CC(=O)O)C(=O)N[C@@H](CCCNC(=N)N)C(=O)N[C@@H](CC(C)C)C(=O)N[C@@]1(C)CCCC=CCCC[C@@](C)(C(=O)N[C@@H](CC(N)=O)C(=O)N[C@@H](CC(C)C)C(=O)N[C@@H](CC(N)=O)C(=O)N[C@@H](CCC(=O)O)C(=O)N[C@@H](CO)C(=O)N[C@@H](CC(C)C)C(=O)N[C@H](C(=O)N[C@@H](CC(=O)O)C(=O)N[C@@H](CC(C)C)C(=O)N[C@@H](CCC(N)=O)C(=O)N[C@@H](CCC(=O)O)C(=O)N[C@@H](CC(C)C)C(N)=O)[C@@H](C)CC)NC(=O)[C@H](C)NC(=O)[C@H](C(C)C)NC(=O)[C@H](CCC(=O)O)NC1=O)[C@@H](C)CC)[C@@H](C)CC)C(C)C)C(C)C
EC50: 5 µM
